Results taken from patent publication US7192982B2, “Modulators of peroxisome proliferator activated receptors” (Ligand Pharmaceuticals, Inc., priority 2001, dated 2007).

Tests used:
[1] = tested on: mice, transgenic for human apoAI; test: Evaluation of triglyceride and cholesterol levels in HuapoAI transgenic mice; format: in vivo; settings: hu apoAI transgenic mice
Experimental: Five to six week old male mice, transgenic for human apoAI [C57B1/6-tgn(apoa1)1rub, Jackson Laboratory, Bar Harbor, Me.] were housed five per cage (10″×20″×8″ with aspen chip bedding) with food (Purina 5001) and water available at all times. After an acclimation period of 2 weeks, animals were individually identified by ear notches, weighed and assigned to groups based on body weight. Beginning the following morning, mice were dosed daily by oral gavage for 7 days using a 20 gauge, 1½″ curved disposable feeding needle. Treatments were test compounds (30 mg/kg), a positive control (fenofibrate, 100 mg/kg) or vehicle [1% carboxymethylcellulose (w/v)/0.25% Tween80 (w/v); 0.2 ml/mouse]. Prior to termination on day 7, mice were weighed and dosed. Three hours after dosing, animals were anesthetized by inhalation of isoflurane (2–4%) and blood obtained via cardiac puncture (0.7–1.0 ml). Whole blood was transferred to serum separator tubes (Vacutainer SST), chilled on ice and permitted to clot. Serum, was obtained after centrifugation at 4° C. and frozen until analysis for triglycerides, total cholesterol, compound levels and serum lipoprotein profiled by fast protein liquid, chromatography (FPLC) coupled to an inline detection system. After sacrifice by cervical dislocation, the liver, heart and epididymal fat pads were excised and weighed.
Glucose was measured colorimetrically by using commercially purchased reagents (Sigma #315-500). According to the manufacturers, the procedures were modified from published work (McGowan et al. Clin Chem, 20:470–5 (1974) and Keston, A. Specific colorimetric enzymatic analytical reagents for glucose. Abstract of papers 129th Meeting ACS, 31C (1956).); and depend on the release of a mole of hydrogen peroxide for each mole of analyte coupled with a color reaction first described by Trinder (Trinder, P. Ann Clin Biochem, 6:24 (1969)). The absorbance of the dye produced was linearly related to the analyte in the sample. The assays was further modified for use in a 96 well format. Standards (Sigma #339-11, Sigma #16-11, and Sigma #CC0534 for glucose, triglycerides and total cholesterol, respectively), quality control plasma (Sigma # A2034), and samples-(2 or 5 μl well) were measured in duplicate using 200 μl of reagent. An additional aliquot of sample, pipetted to a third well and diluted in 200 μl water, provided ai blank for each specimen. Plates were incubated at room temperature (18, 15, and 10 minutes for glucose, triglycerides and total cholesterol, respectively) on a plate shaker and absorbance read at 500 nm (glucose and total cholesterol) or 540 nm (triglycerides) on a plate reader. Sample absorbance was compared to a standard curve (100–800, 10–500, and 100–400 mg/dl for glucose, triglycerides and total cholesterol, respectively). Values for the quality control sample wee consistently within the expected range and the coefficient of variation for samples is below 10%. All samples from an experiment were assayed at the same time to minimize inter-assay variability.
Serum lipoproteins were separated and cholesterol was quantitated with an in-line detection system. Sample was applied to a Superose® 6 HR 10/30 size exclusion column (Amersham Pharmacia Biotech) and eluted with phosphate buffered saline-EDTA at 0.5 ml/min. Cholesterol reagent (Roche Diagnostics Chol/HP 704036) at 0.16 ml/min was mixed with the column effluent through a T-connection, and the mixture was passed through a 15 m×0.5 mm id knitted tubing reactor immersed in a 37° C. water bath. The colored product produced in the presence of cholesterol was monitored in the flow stream at 505 nm, and the analog voltage from the monitor was converted to a digital signal for collection and analysis. The change in voltage corresponding to change in cholesterol concentration was plotted against time, and the area under the curve corresponding to the elution of VLDL, LDL and HDL was calculated (Perkin Elmer Turbochrome software).

SMILES | mean percent increase of HDLc ([1]; FPLC of pooled sera, 100 mg/kg oral daily for 7 days, versus vehicle) [%] | high-density lipoprotein cholesterol (HDLc) peak area ([1]; FPLC of pooled sera, 100 mg/kg oral daily for 7 days, vehicle 47 v-sec to 62 v-sec) | mean elevation of total serum cholesterol ([1]; 100 mg/kg oral gavage daily for 7 days, versus vehicle) [%] | average total serum cholesterol values ([1]; 100 mg/kg oral gavage daily for 7 days, vehicle about 140 to 180 mg/dl) [mg/dL] | mean reduction of triglycerides ([1]; serum, 100 mg/kg oral gavage daily for 7 days, versus vehicle) [%] | average triglycerides values ([1]; serum, 100 mg/kg oral gavage daily for 7 days, vehicle about 60 to 80 mg/dl) [mg/dL] | melting point [°C]
CC(C)OC(=O)C(C)(C)Oc1ccc(C(=O)c2ccc(Cl)cc2)cc1 [fenofibrate] | 48 | 68–96 v-sec | 41 | 190 to 280 | 37 | 33 to 58 | –
CO[C@@H](Cc1ccc(C#CCOc2ccc(-c3ccccc3)cc2)cc1)C(=O)O [Example 1, (2S)-3-{4-[3-(Biphenyl-4-yloxy)-prop-1-ynyl]-phenyl}-2-methoxy-propionic acid] | – | – | – | – | – | – | 111 to 112
